According to patent publication US20080026996A1, “Selective Vpac2 Receptor Reptide Agonists” (ELI LILLY AND COMPANY, priority 2004, published 2008):
pEC50: −log10 of the molar value. Where a SMILES comes first, the peptide text is derived from it. Where no end group is shown, it is not given here. [ ]: non-standard residue; d: D form. The star is where a group is joined. Orn = NCCC[C@H](N)C(=O)O; Hexanoyl = CCCCCC(=O)*; Aib = CC(C)(N)C(=O)O

Tests used:
human VPAC2 = biological target: T1, human VPAC2 (Homo sapiens, UniProt P41587); assay: Alpha screen cAMP in vitro potency, human VPAC2 receptor; assay type: cell-based; settings: cAMP generation; single result from two analyses performed in a single run; read-out: Human VPAC2 Receptor: Alpha Screen EC50
T1 construct: expressed in transfected cells
T1 sequence (P41587 24-438): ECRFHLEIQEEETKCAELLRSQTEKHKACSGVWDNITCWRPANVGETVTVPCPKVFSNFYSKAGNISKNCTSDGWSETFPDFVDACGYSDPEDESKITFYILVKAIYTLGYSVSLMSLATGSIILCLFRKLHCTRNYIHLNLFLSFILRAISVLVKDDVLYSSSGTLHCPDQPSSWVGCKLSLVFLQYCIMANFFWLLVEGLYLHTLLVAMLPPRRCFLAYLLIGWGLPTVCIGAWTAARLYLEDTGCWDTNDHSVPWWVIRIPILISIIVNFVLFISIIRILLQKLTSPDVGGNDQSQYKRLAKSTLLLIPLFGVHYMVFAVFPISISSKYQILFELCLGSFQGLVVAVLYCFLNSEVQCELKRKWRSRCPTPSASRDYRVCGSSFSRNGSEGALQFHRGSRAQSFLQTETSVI
Outline: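 Stimulated cAMP accumulation is read by AlphaScreen after 60 min exposure of 50,000 non-enzymatically harvested cells to compound, followed by lysis with donor beads.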

[1] = Rat serum stability studies (remaining active peptide by DiscoveRx cAMP on CHO-VPAC2 cells); assay type: in vitro ADME
Procedure: Store the aliquot with aprotinin at 4° C. Store the aliquot without aprotinin at 37° C. […] […] Incubate in room temperature for 30 minutes. Remove the supernatant. […] Incubate on the shaker (300 rpm) for 1 hour. Proceed as normal with the DiscoveRx kit. Include cAMP standards in column 12. Determine EC50 values from the cAMP assay data.

In the case of `CCCCCC(=O)N[C@@H](Cc1c[nH]cn1)C(=O)N[C@@H](CO)C(=O)N[C@@H](CC(=O)O)C(=O)N[C@@H](C)C(=O)N[C@H](C(=O)N[C@@H](Cc1ccccc1)C(=O)N[C@H](C(=O)N[C@@H](CC(=O)O)C(=O)N[C@@H](CC(N)=O)C(=O)N[C@@H](Cc1ccc(O)cc1)C(=O)N[C@H](C(=O)N[C@@H](CCCNC(=N)N)C(=O)N[C@@H](CC(C)C)C(=O)N[C@@H](CCCNC(=N)N)C(=O)NC(C)(C)C(=O)N[C@@H](CCC(N)=O)C(=O)N[C@H](C(=O)N[C@@H](C)C(=O)N[C@@H](C)C(=O)NC(C)(C)C(=O)N[C@@H](CCCCN)C(=O)N[C@@H](Cc1ccc(O)cc1)C(=O)N[C@@H](CC(C)C)C(=O)N[C@@H](CCC(N)=O)C(=O)N[C@@H](CO)C(=O)N[C@H](C(=O)N[C@@H](CCCCN)C(=O)N1CCC[C@H]1C(=O)N[C@@H](CCCCN)C(=O)NCC(=O)NCC(=O)N1CCC[C@H]1C(=O)N[C@@H](CO)C(=O)N[C@@H](CO)C(=O)NCC(=O)N[C@@H](C)C(=O)N1CCC[C@H]1C(=O)N1CCC[C@H]1C(=O)N1CCC[C@H]1C(=O)N[C@@H](CO)C(=O)O)[C@@H](C)CC)C(C)C)[C@@H](C)O)[C@@H](C)O)C(C)C` [Agonist P350] (Hexanoyl-HSDAVFTDNYTRLR[Aib]QVAA[Aib]KYLQSIKPKGGPSSGAPPPS-OH; C-terminus assumed), the pEC50 (human VPAC2) was 9.89 and the “Rat Serum Stability (estimated purity in % after 18 hours)” value [1] was 25.83%.

For “Hexanoyl-HSDAVFTDNYTRLRKQVAAKKALQSIKNKRYGGPSSGAPPPS [Agonist P229]”, the pEC50 (human VPAC2) was 8.59 and the “Rat Serum Stability (estimated purity in % after 18 hours)” value [1] was under 5.00%.

With “Hexanoyl-HSDAVFTDNYTRLRKQVAAKKYTQSIKNKRYGGPSSGAPPPS [Agonist P232]” the pEC50 (human VPAC2) was 8.71 and the “Rat Serum Stability (estimated purity in % after 18 hours)” value [1] was under 5.00%.

For `CCCCCC(=O)N[C@@H](Cc1c[nH]cn1)C(=O)N[C@@H](CO)C(=O)N[C@@H](CC(=O)O)C(=O)N[C@@H](C)C(=O)N[C@H](C(=O)N[C@@H](Cc1ccccc1)C(=O)N[C@H](C(=O)N[C@@H](CC(=O)O)C(=O)N[C@@H](CC(N)=O)C(=O)N[C@@H](Cc1ccc(O)cc1)C(=O)N[C@H](C(=O)N[C@@H](CCCNC(=N)N)C(=O)N[C@@H](CC(C)C)C(=O)N[C@@H](CCCNC(=N)N)C(=O)NC(C)(C)C(=O)N[C@@H](CCC(N)=O)C(=O)N[C@H](C(=O)N[C@@H](C)C(=O)N[C@@H](C)C(=O)NC(C)(C)C(=O)N[C@@H](CCCCN)C(=O)N[C@@H](Cc1ccc(O)cc1)C(=O)N[C@@H](CC(C)C)C(=O)N[C@@H](CCC(N)=O)C(=O)N[C@@H](CO)C(=O)N[C@H](C(=O)N[C@@H](CCCCN)C(=O)N[C@@H](CCCCN)C(=O)NCC(=O)NCC(=O)N1CCC[C@H]1C(=O)N[C@@H](CO)C(=O)N[C@@H](CO)C(=O)NCC(=O)N[C@@H](C)C(=O)N1CCC[C@H]1C(=O)N1CCC[C@H]1C(=O)N1CCC[C@H]1C(=O)N[C@@H](CO)C(=O)O)[C@@H](C)CC)C(C)C)[C@@H](C)O)[C@@H](C)O)C(C)C` [Agonist P351], the pEC50 (human VPAC2) was 9.96 and the “Rat Serum Stability (estimated purity in % after 18 hours)” value [1] was 18.52%.

In the case of `CCCCCC(=O)N[C@@H](Cc1c[nH]cn1)C(=O)N[C@@H](CO)C(=O)N[C@@H](CC(=O)O)C(=O)N[C@@H](C)C(=O)N[C@H](C(=O)N[C@@H](Cc1ccccc1)C(=O)N[C@H](C(=O)N[C@@H](CC(=O)O)C(=O)N[C@@H](CC(N)=O)C(=O)N[C@@H](Cc1ccc(O)cc1)C(=O)N[C@H](C(=O)N[C@@H](CCCN)C(=O)N[C@@H](CC(C)C)C(=O)N[C@@H](CCCNC(=N)N)C(=O)NC(C)(C)C(=O)N[C@@H](CCC(N)=O)C(=O)N[C@H](C(=O)N[C@@H](C)C(=O)N[C@@H](C)C(=O)NC(C)(C)C(=O)N[C@@H](CCCCN)C(=O)N[C@@H](Cc1ccc(O)cc1)C(=O)N[C@@H](CC(C)C)C(=O)N[C@@H](CCC(N)=O)C(=O)N[C@@H](CO)C(=O)N[C@H](C(=O)N[C@@H](CCCN)C(=O)N[C@@H](CC(N)=O)C(=O)N[C@@H](CCCN)C(=O)NCC(=O)NCC(=O)N1CCC[C@H]1C(=O)N[C@@H](CO)C(=O)N[C@@H](CO)C(=O)NCC(=O)N[C@@H](C)C(=O)N1CCC[C@H]1C(=O)N1CCC[C@H]1C(=O)N1CCC[C@H]1C(=O)N[C@@H](CO)C(=O)O)[C@@H](C)CC)[C@@H](C)CC)[C@@H](C)O)[C@@H](C)O)C(C)C` [Agonist P365] (Hexanoyl-HSDAVFTDNYT[Orn]LR[Aib]QIAA[Aib]KYLQSI[Orn]N[Orn]GGPSSGAPPPS-OH; C-terminus assumed), the pEC50 (human VPAC2) was 9.89 and the “Rat Serum Stability (estimated purity in % after 18 hours)” value [1] was 91.13%.

In the case of `CCCCCC(=O)N[C@@H](Cc1c[nH]cn1)C(=O)N[C@@H](CO)C(=O)N[C@@H](CC(=O)O)C(=O)N[C@@H](C)C(=O)N[C@H](C(=O)N[C@@H](Cc1ccccc1)C(=O)N[C@H](C(=O)N[C@@H](CC(=O)O)C(=O)N[C@@H](CC(N)=O)C(=O)N[C@@H](Cc1ccc(O)cc1)C(=O)N[C@H](C(=O)N[C@@H](CCCNC(=N)N)C(=O)N[C@@H](CC(C)C)C(=O)N[C@@H](CCCNC(=N)N)C(=O)NC(C)(C)C(=O)N[C@@H](CCC(N)=O)C(=O)N[C@H](C(=O)N[C@@H](C)C(=O)N[C@@H](C)C(=O)NC(C)(C)C(=O)N[C@@H](CCCCN)C(=O)N[C@@H](Cc1ccc(O)cc1)C(=O)N[C@@H](CC(C)C)C(=O)N[C@@H](CCC(N)=O)C(=O)N[C@@H](CO)C(=O)N[C@H](C(=O)N[C@@H](CCCCN)C(=O)NC(C)(C)C(=O)NCC(=O)NCC(=O)N1CCC[C@H]1C(=O)N[C@@H](CO)C(=O)N[C@@H](CO)C(=O)NCC(=O)N[C@@H](C)C(=O)N1CCC[C@H]1C(=O)N1CCC[C@H]1C(=O)N1CCC[C@H]1C(=O)N[C@@H](CO)C(=O)O)[C@@H](C)CC)C(C)C)[C@@H](C)O)[C@@H](C)O)C(C)C` [Agonist P355], the pEC50 (human VPAC2) was 10.00 and the “Rat Serum Stability (estimated purity in % after 18 hours)” value [1] was 35.94%.

With `CCCCCC(=O)N[C@@H](Cc1c[nH]cn1)C(=O)N[C@@H](CO)C(=O)N[C@@H](CC(=O)O)C(=O)N[C@@H](C)C(=O)N[C@H](C(=O)N[C@@H](Cc1ccccc1)C(=O)N[C@H](C(=O)N[C@@H](CC(=O)O)C(=O)N[C@@H](CC(N)=O)C(=O)N[C@@H](Cc1ccc(O)cc1)C(=O)N[C@H](C(=O)N[C@@H](CCCNC(=N)N)C(=O)N[C@@H](CC(C)C)C(=O)N[C@@H](CCCNC(=N)N)C(=O)N[C@@H](CCCNC(=N)N)C(=O)N[C@@H](CCC(N)=O)C(=O)N[C@H](C(=O)N[C@@H](C)C(=O)N[C@@H](C)C(=O)N[C@@H](CCCNC(=N)N)C(=O)N[C@@H](CCCCN)C(=O)N[C@@H](Cc1ccc(O)cc1)C(=O)N[C@@H](CC(C)C)C(=O)N[C@@H](CCC(N)=O)C(=O)N[C@@H](CO)C(=O)N[C@H](C(=O)N[C@@H](CCCNC(=N)N)C(=O)N[C@@H](CC(N)=O)C(=O)NCC(=O)NCC(=O)N1CCC[C@H]1C(=O)N[C@@H](CO)C(=O)N[C@@H](CO)C(=O)NCC(=O)N[C@@H](C)C(=O)N1CCC[C@H]1C(=O)N1CCC[C@H]1C(=O)N1CCC[C@H]1C(=O)N[C@@H](CO)C(=O)O)[C@@H](C)CC)C(C)C)[C@@H](C)O)[C@@H](C)O)C(C)C` [Agonist P216] (Hexanoyl-HSDAVFTDNYTRLRRQVAARKYLQSIRNGGPSSGAPPPS-OH; C-terminus assumed) the pEC50 (human VPAC2) was 9.96 and the “Rat Serum Stability (estimated purity in % after 18 hours)” value [1] was 0.06%.

With `CCCCCC(=O)N[C@@H](Cc1c[nH]cn1)C(=O)N[C@@H](CO)C(=O)N[C@@H](CC(=O)O)C(=O)N[C@@H](C)C(=O)N[C@H](C(=O)N[C@@H](Cc1ccccc1)C(=O)N[C@H](C(=O)N[C@@H](CC(=O)O)C(=O)N[C@@H](CC(N)=O)C(=O)N[C@@H](Cc1ccc(O)cc1)C(=O)N[C@H](C(=O)N[C@@H](CCCN)C(=O)N[C@@H](CC(C)C)C(=O)N[C@@H](CCCNC(=N)N)C(=O)NC(C)(C)C(=O)N[C@@H](CCC(N)=O)C(=O)N[C@@H](CC(C)C)C(=O)N[C@@H](C)C(=O)N[C@@H](C)C(=O)NC(C)(C)C(=O)N[C@@H](CCCCN)C(=O)N[C@@H](Cc1ccc(O)cc1)C(=O)N[C@@H](CC(C)C)C(=O)N[C@@H](CCC(N)=O)C(=O)N[C@@H](CO)C(=O)N[C@H](C(=O)N[C@@H](CCCN)C(=O)N[C@@H](CC(N)=O)C(=O)N[C@@H](CCCN)C(=O)NCC(=O)NCC(=O)N1CCC[C@H]1C(=O)N[C@@H](CO)C(=O)N[C@@H](CO)C(=O)NCC(=O)N[C@@H](C)C(=O)N1CCC[C@H]1C(=O)N1CCC[C@H]1C(=O)N1CCC[C@H]1C(=O)N[C@@H](CO)C(=O)O)[C@@H](C)CC)[C@@H](C)O)[C@@H](C)O)C(C)C` [Agonist P364] (Hexanoyl-HSDAVFTDNYT[Orn]LR[Aib]QLAA[Aib]KYLQSI[Orn]N[Orn]GGPSSGAPPPS-OH; C-terminus assumed) the pEC50 (human VPAC2) was 9.96 and the “Rat Serum Stability (estimated purity in % after 18 hours)” value [1] was 86.23%.
